Measurements published in patent US20200261383A1, “PHARMACEUTICAL COMPOSITIONS” (KALVISTA PHARMACEUTICALS LIMITED, priority 2017, published 2020).
Blank lines part the entries; values can stand above or below the compound they belong to.

Key:
[1] = tested on: diabetic rats; settings: cited from earlier work
[2] = Ocular pharmacokinetic study in monkey, intravitreal injection on Day 1, 29 and 57; assay type: in vivo, cynomolgus monkeys; settings: monkeys; IVT 5 μg/eye Day 1, 29, 57; calculated post third dose, sampling interval Day 57-99
[3] = solution for injection; cited from earlier work

Compound: N=C(N)c1ccc(CNC(=O)c2cnn(Cc3ccccc3)c2)cc1 [ASP-440]
Retinal blood flow abnormalities [1]: ameliorated
Retinal vascular permeability [1]: ameliorated

AUC0-last in Ocular Tissue, Aqueous Humor [2]: 1,410 ng · h/mL or ng · h/g
AUC0-last in Ocular Tissue, Choroid-Tissue [2]: 32,200 ng · h/mL or ng · h/g
AUC0-last in Ocular Tissue, Retina- Tissue [2]: 166,000 ng · h/mL or ng · h/g
AUC0-last in Ocular Tissue, Vitreous Humor [2]: 1,110 ng · h/mL or ng · h/g
Compound: CCOc1ccc(C[C@@H](NC(=O)c2ccccc2)C(=O)N[C@@H](Cc2ccccc2)C(=O)NCc2ccc(CN)cc2)cc1.Cl [Compound 1, N-[(R)-1-[(S)-1-(4-Aminomethyl-benzylcarbamoyl)-2-phenyl-ethylcarbamoyl]-2-(4-ethoxy-phenyl)-ethyl]-benzamide hydrochloride]

Compound: Ecallantide
Safety in medical use [3]: risk of anaphylactic reactions
